ChEMBL document CHEMBL4387721, “Proteolysis targeting chimeras (PROTACs) in 'beyond rule-of-five' chemical space: Recent progress and future challenges” (Bioorg Med Chem Lett, 2019)
Each block holds one compound with its values, some of them ahead of it.

Tests used:
[1] = target: T1, Protein cereblon/B-cell lymphoma 6 protein (Homo sapiens, UniProt Q96SW2+P41182); test: Protac activity at CRBN/BCL6 in human SUDHL4 cells assessed as induction of BCL6 protein degradation after 4 hrs by Western blot analysis; format: cell-based
T1 sequence (Q96SW2 whole entry, looked up, other chains not shown): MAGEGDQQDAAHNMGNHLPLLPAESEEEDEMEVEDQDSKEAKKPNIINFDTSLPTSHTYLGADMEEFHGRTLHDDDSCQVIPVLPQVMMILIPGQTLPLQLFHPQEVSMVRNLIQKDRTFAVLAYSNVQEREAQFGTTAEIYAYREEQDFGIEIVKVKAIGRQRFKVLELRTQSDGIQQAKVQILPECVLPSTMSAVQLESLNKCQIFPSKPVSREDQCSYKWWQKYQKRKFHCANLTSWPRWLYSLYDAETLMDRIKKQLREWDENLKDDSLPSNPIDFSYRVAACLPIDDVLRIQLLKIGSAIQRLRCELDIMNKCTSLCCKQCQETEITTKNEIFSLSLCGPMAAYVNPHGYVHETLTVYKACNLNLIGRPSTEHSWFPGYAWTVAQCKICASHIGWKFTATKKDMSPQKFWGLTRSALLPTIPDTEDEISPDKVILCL

[2] = target: T1, Protein cereblon/B-cell lymphoma 6 protein; test: Protac activity at CRBN/BCL6 in human SUDHL4 cells assessed as induction of BCL6 protein degradation at 1 uM after 4 hrs by Western blot analysis relative to control; format: cell-based
[3] = target: T2, von Hippel-Lindau disease tumor suppressor/Focal adhesion kinase 1 (Homo sapiens, UniProt Q05397+P40337); test: Protac activity at VHL/FAK in serum deprived human PC3 cells assessed as induction of FAK protein degradation in serum deprived human PC3 cells after 24 hrs by Western blot analysis
Target sequence in this assay (Q05397 whole entry): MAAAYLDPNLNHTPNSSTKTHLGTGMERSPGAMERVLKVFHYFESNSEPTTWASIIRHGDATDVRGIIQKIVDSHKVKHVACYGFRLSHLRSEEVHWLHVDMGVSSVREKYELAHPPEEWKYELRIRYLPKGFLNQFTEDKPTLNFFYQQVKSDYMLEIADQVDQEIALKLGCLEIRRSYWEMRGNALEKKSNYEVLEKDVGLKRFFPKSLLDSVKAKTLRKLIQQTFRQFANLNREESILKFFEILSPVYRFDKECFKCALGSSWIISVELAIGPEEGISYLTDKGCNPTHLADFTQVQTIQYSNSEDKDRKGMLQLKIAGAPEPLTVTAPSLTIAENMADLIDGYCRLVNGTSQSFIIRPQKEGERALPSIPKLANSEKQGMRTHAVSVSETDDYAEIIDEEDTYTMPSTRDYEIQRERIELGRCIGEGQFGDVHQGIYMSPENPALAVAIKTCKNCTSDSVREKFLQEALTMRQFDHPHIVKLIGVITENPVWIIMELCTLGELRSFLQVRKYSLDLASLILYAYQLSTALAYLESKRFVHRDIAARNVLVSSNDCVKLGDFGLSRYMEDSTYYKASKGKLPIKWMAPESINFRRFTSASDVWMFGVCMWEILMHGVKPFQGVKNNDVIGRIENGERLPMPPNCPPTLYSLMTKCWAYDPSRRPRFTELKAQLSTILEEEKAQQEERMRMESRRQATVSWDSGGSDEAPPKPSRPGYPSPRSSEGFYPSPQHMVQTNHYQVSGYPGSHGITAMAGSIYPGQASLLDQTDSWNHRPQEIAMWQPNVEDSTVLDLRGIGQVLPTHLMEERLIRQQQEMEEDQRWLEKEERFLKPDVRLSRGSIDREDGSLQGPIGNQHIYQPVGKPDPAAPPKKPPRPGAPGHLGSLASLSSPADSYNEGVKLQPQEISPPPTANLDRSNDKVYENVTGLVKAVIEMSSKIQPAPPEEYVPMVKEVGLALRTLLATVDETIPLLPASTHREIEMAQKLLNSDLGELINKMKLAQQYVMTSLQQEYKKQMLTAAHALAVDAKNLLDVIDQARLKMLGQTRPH
Target sequence in this assay (P40337 whole entry): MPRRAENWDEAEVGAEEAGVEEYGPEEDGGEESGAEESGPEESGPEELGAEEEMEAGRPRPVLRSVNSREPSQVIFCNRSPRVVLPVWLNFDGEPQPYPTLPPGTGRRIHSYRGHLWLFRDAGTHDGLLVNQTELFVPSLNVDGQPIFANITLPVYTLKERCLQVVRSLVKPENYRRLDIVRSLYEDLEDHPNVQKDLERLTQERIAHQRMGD

[4] = target: T2, von Hippel-Lindau disease tumor suppressor/Focal adhesion kinase 1; test: Protac activity at VHL/FAK in serum deprived human PC3 cells assessed as induction of FAK protein degradation in serum deprived human PC3 cells at 50 nM after 24 hrs by Western blot analysis relative to control
[5] = target: Protein cereblon/Tyrosine-protein kinase BTK (Homo sapiens, UniProt Q06187+Q96SW2); test: Protac activity at CRBN/BTK in human NAMALWA cells assessed as induction of BTK protein degradation at 100 nM incubated for 24 hrs by immunoblotting method relative to control; format: cell-based
[6] = target: T3, Protein cereblon/Cyclin-dependent kinase 9 (Homo sapiens, UniProt P50750+Q96SW2); test: Protac activity at CRBN/CDK9 in human HCT116 cells assessed as induction of CDK9 protein degradation after 6 hrs by Western blot analysis; format: cell-based
Target sequence in this assay (P50750 whole entry): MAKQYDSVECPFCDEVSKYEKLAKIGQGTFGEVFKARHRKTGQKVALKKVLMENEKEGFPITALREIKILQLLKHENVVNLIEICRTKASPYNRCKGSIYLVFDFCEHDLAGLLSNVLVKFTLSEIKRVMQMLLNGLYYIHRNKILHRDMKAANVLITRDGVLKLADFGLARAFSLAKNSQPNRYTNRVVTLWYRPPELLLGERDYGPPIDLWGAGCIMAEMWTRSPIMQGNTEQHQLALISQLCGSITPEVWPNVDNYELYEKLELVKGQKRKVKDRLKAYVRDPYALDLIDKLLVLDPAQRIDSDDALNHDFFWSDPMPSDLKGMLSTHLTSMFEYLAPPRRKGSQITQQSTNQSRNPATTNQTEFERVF
Target sequence in this assay (Q96SW2 whole entry): as the sequence (Q96SW2 whole entry, looked up, other chains not shown) above

[7] = target: T4, von Hippel-Lindau disease tumor suppressor/Steroid hormone receptor ERR1 (Homo sapiens, UniProt P11474+P40337); test: Protac activity at VHL/ERRalpha in epoxomicin pre-treated human MCF7 cells assessed as induction of ERRalpha protein degradation incubated for 8 hrs by Western blot analysis; format: cell-based
[8] = target: T4, von Hippel-Lindau disease tumor suppressor/Steroid hormone receptor ERR1; test: Protac activity at VHL/ERRalpha in epoxomicin pre-treated human MCF7 cells assessed as induction of ERRalpha protein degradation at 1 uM incubated for 8 hrs by Western blot analysis relative to control; format: cell-based
[9] = target: T3, Protein cereblon/Cyclin-dependent kinase 9; test: Protac activity at CRBN/CDK9 in human MOLT4 cells assessed as induction of CDK9 protein degradation after 6 hrs by Western blot analysis; format: cell-based
Target sequence in this assay (P50750 whole entry): as the sequence (P50750 whole entry) above
Target sequence in this assay (Q96SW2 whole entry): as the sequence (Q96SW2 whole entry, looked up, other chains not shown) above

[10] = target: T3, Protein cereblon/Cyclin-dependent kinase 9; test: Protac activity at CRBN/CDK9 in human MOLT4 cells assessed as induction of CDK9 protein degradation after 6 hrs by Western blot analysis relative to control; format: cell-based
Target sequence in this assay (P50750 whole entry, looked up): as the sequence (P50750 whole entry) above
Target sequence in this assay (Q96SW2 whole entry, looked up): as the sequence (Q96SW2 whole entry, looked up, other chains not shown) above

[11] = target: von Hippel-Lindau disease tumor suppressor/Receptor-interacting serine/threonine-protein kinase 2 (Homo sapiens) (UniProt O43353+P40337); test: Protac activity at VHL/RIPK2 in human THP1 cells assessed as induction of RIPK2 protein degradation at 10 nM incubated for 16 hrs by Western blot analysis relative to control; format: cell-based
Sequence of von Hippel-Lindau disease tumor suppressor/Receptor-interacting serine/threonine-protein kinase 2 (Homo sapiens) (O43353 whole entry, looked up): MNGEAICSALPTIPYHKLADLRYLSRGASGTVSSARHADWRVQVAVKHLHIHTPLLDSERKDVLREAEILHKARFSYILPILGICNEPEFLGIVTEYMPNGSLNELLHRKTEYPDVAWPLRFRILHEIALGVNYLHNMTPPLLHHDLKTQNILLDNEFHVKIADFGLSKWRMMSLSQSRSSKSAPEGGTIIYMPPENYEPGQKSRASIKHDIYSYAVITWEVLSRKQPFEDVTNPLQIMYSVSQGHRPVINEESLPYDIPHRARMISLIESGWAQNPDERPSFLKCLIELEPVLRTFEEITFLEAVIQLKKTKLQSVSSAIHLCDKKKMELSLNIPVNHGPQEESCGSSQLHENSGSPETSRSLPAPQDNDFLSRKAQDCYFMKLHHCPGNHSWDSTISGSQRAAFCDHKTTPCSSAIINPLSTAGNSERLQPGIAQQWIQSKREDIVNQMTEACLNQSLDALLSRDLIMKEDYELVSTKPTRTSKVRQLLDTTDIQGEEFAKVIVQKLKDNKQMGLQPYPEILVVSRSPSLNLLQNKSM
Sequence of von Hippel-Lindau disease tumor suppressor/Receptor-interacting serine/threonine-protein kinase 2 (Homo sapiens) (P40337 whole entry, looked up): as the sequence (P40337 whole entry) above

[12] = Protac activity at CRBN/FKBP12 F36V mutant (unknown origin) expressed in human 293FT cells assessed as induction of FKBP12 F36V mutant protein degradation incubated for 4 hrs by Western blot analysis; format: cell-based
[13] = species: Homo sapiens; test: Protac activity at CRBN/FKBP12 F36V mutant (unknown origin) expressed in human 293FT cells assessed as induction of FKBP12 F36V mutant protein degradation incubated for 4 hrs by Western blot analysis relative to control; format: cell-based
[14] = target: Protein cereblon/Bromodomain-containing protein 4 (Homo sapiens) (UniProt O60885+Q96SW2); test: Protac activity at Cereblon/BRD4 in human MV411 cells assessed as induction of BRD4 protein degradation at 1 uM incubated for 18 hrs by immunoblot analysis relative to control; format: cell-based
Sequence of Protein cereblon/Bromodomain-containing protein 4 (Homo sapiens) (Q96SW2 whole entry, looked up, other chains not shown): as the sequence (Q96SW2 whole entry, looked up, other chains not shown) above

[15] = target: T5, E3 ubiquitin-protein ligase XIAP/Tyrosine-protein kinase ABL1/Breakpoint cluster region protein (Homo sapiens, UniProt P00519+P98170+P11274); test: Protac activity at BCR-ABL/XIAP in human K562 cells assessed as induction of ABL protein degradation at 100 nM after 6 hrs by Western blot analysis relative to control; format: cell-based
[16] = target: T5, E3 ubiquitin-protein ligase XIAP/Tyrosine-protein kinase ABL1/Breakpoint cluster region protein; test: Protac activity at BCR-ABL/XIAP in human K562 cells assessed as induction of ABL protein degradation after 6 hrs by Western blot analysis; format: cell-based

- DC50 [1]: < 1000 nM
- Emax [2]: 84%
Structure (SMILES): CN1C(=O)CCc2cc3cc(c21)OCCOC[C@H]1CN(C(=O)CCC(=O)NCCCOCCOCCOCCOCCOc2cccc4c2C(=O)N(C2CCC(=O)NC2=O)C4=O)CCN1c1ncc(Cl)c(n1)N3 (stereo partly specified)

- DC50 [6]: 10000 nM
Structure (SMILES): O=C1CCC(N2C(=O)c3cccc(OCCCCCOc4ccc(CC(=O)Nc5cc(C6CCC6)n[nH]5)cc4)c3C2=O)C(=O)N1 (stereo unspecified)

- DC50 [9]: < 250 nM
- Emax [10]: > 95%
Structure (SMILES): CC(C)(C)c1cnc(CSc2cnc(NC(=O)C3CCN(CC(=O)NCCOCCOCCOCCNc4cccc5c4C(=O)N(C4CCC(=O)NC4=O)C5=O)CC3)s2)o1 (stereo unspecified)

- Emax [14]: 95%
Structure (SMILES): Cc1sc2c(c1C)C(c1ccc(Cl)cc1)=N[C@@H](CC(=O)NCCCCNC(=O)COc1cccc3c1C(=O)N(C1CCC(=O)NC1=O)C3=O)c1nnc(C)n1-2 (stereo partly specified)

More lines, now with the values behind:

Structure (SMILES): Cc1ncsc1-c1ccc(CNC(=O)[C@@H]2C[C@@H](O)CN2C(=O)[C@@H](NC(=O)CCOCCOc2ccc(Nc3ncc(C(F)(F)F)c(NCc4cccc(N(C)S(C)(=O)=O)c4)n3)cc2)C(C)(C)C)cc1
- DC50 [3]: 3 nM
- Emax [4]: > 99%

Structure (SMILES): Nc1ncnc2c1c(-c1ccc(Oc3ccccc3)cc1)nn2C1CCN(CCOCCOCC(=O)Nc2ccc3c(c2)C(=O)N(C2CCC(=O)NC2=O)C3=O)CC1 (stereo unspecified)
- Emax [5]: > 99%

Structure (SMILES): COc1cc(/C=C2\SC(=O)N(CCOCCC(=O)N[C@H](C(=O)N3C[C@H](O)C[C@H]3C(=O)NCc3ccc(-c4scnc4C)cc3)C(C)(C)C)C2=O)ccc1Oc1ccc(C#N)cc1C(F)(F)F
- DC50 [7]: 100 nM
- Emax [8]: 86%

Structure (SMILES): Cc1ncsc1-c1ccc(CNC(=O)[C@@H]2C[C@@H](O)CN2C(=O)[C@@H](NC(=O)COCCOCCOCCOCCOc2cc3nccc(Nc4ccc5scnc5c4)c3cc2S(=O)(=O)C(C)(C)C)C(C)(C)C)cc1
- Emax [11]: > 95%

Structure (SMILES): CC[C@H](C(=O)N1CCCC[C@H]1C(=O)O[C@H](CCc1ccc(OC)c(OC)c1)c1ccccc1OCC(=O)NCCCCCCOc1cccc2c1C(=O)N(C1CCC(=O)NC1=O)C2=O)c1cc(OC)c(OC)c(OC)c1 (stereo partly specified)
- DC50 [12]: < 100 nM
- Emax [13]: 82%

Structure (SMILES): CN[C@@H](C)C(=O)N[C@H](C(=O)N1CCC[C@H]1c1nc(C(=O)c2cccc(OCCOCCOCCOCC(=O)N3CCN(c4cc(Nc5ncc(C(=O)Nc6c(C)cccc6Cl)s5)nc(C)n4)CC3)c2)cs1)C1CCCCC1
- Emax [15]: > 90%
- DC50 [16]: 3 to 10 nM
